Results on one molecule are retold here after patent US20250360117A1, “KCNT1 INHIBITORS COMPRISING AN ISOXAZOLE OR OXADIAZOLE CORE AND METHODS OF USE” (PRAXIS PRECISION MEDICINES, INC., priority 2022, published 2025).

The structures appear in SMILES notation. Several values for one entry are separate records, joined by “and”; a condition that tells them apart may be missing. Equal values may be shown once. Entries after “also recorded” stand apart in the source; their conditions may differ.

Data set [1] can be described thus: Brain exposure in pups after maternal dosing (LC-MS/MS). In kind it is in vivo, mouse. Particulars: KCNT1^R455H/R455H pups, individual, brain collected when found deceased; maternal 75 mg/kg s.c. The method, then: (§1) Whole brains were collected from all pups at 14 days after birth or at the time they are found deceased. Tails were genotyped through an automated system (Transnetyx) which was previously validated against PCR-based RFLP and sequencing. The whole brains were analyzed to determine brain exposure of Formula (I-A).
Bioanalysis of Brain Samples: Brain tissue was homogenized in 10:1 (v/wt) ratio using 10 mM PBS in methanol (2:1, v/v). 20 μL of samples were then precipitated with 200 μL IS solution (100 ng/mL Labetalol & 100 ng/mL Tolbutamide in ACN). The mixture was vortex-mixed and centrifuged at 4000 rpm for 15 min, 4° C. An aliquot of 100 μL supernatant was transferred to a sample plate and mixed with 100 μL water. The plate was shaken at 800 rpm for 10 minutes. 1 μL supernatant was then injected for LC-MS/MS analysis. A 1-3000 ng/ml PRX-0002904 calibration curve was prepared in mouse brain homogenate. Ultra-performance liquid chromatography (UPLC) parameters conditions are provided in Table 5 below, and the results are shown in Table 6 below.

The subject of data set [2] is Kcnt1^R455H/+ heterozygous mice. Description: PTZ-induced seizures in Kcnt1^R455H/+ heterozygous mice. The format is in vivo, mouse. Particulars: for Convulsive seizure latency: hazard ratio (drug/vehicle): log rank test; for Latency (s) to clonic or tonic seizures with loss of posture: individual animals, 1320 s = no seizure observed over the experiment, 75 mg/kg. The procedure: Kcnt1^R455H/+ heterozygous mice have increased sensitivity to PTZ seizure induction as compared with wild-type littermates. It was determined herein whether a compound of Formula (I-A) delivered prior to PTZ could delay the onset of convulsive seizures. Formula (I-A) (75 mg/kg s.c.) or a vehicle control was administered as a single dose. After a pretreatment period of one or two hours, mice were administered PTZ at a dose of 55 mg/kg for induction of seizures. Seizures were then scored based on behavior (no EEG). The latency to convulsive seizures was compared between groups to determine if the compound can prevent induced seizures.
Animals: Adult Kcnt1^R455H/+ heterozygous C57/B6J mice were used in this example. Mice were approximately 2 months old. No preference was made for male or female animals.
Drug preparation and delivery: A 7.5 mg/mL solution of a compound of Formula (I-A) was prepared on each day of injection in 10% DMSO/10% Solutol/80% deionized water with a volume sufficient for 10-20 animals. After at least 30 minutes of acclimatization to the testing environment, either the drug or vehicle control was delivered to each animal subcutaneously at a dose of 75 mg/kg based on current body weight.
PTZ injection and testing: Kcnt1^R455H/+ mice were tested with PTZ 55 mg/kg IP administered 1 or 2 hours after administration of either the compound of Formula (I-A) 75 mg/kg SC or vehicle control. Mice were then monitored continuously for 30 min by an observer blinded to treatment group. […] Latency to first clonic seizure with loss of posture was recorded and compared using the time to event analysis; log-rank Mantel-Cox in GraphPad Prism, p<0.05 was considered statistically significant. Seizures induced by PTZ were scored using a modified Racine scale, and the latency to convulsive seizures was compared between drug and vehicle groups (log rank test).
Behavior was scored live, and mice were recorded on video for later confirmation. Seizure severity scores were based on a recent report that is specifically designed for mouse PTZ experiments (Van Erum et al., Epilepsy and Behavior 2019 June; 95:51-55). Behavioral seizure scores were as follows: • −1: normal baseline • 0: whisker trembling • 1: behavioral arrest • 2: facial jerking • 3: neck jerks/myoclonus • 4: clonic (sitting) • 5: clonic, tonic-clonic (lying on belly) • 6: clonic, tonic-clonic (lying on side), and wild jumping • 7: tonic extension, possibly leading to respiratory arrest and death.
The time at which mice reached each stage was recorded. It was difficult to reliably ascertain grade 0-2 seizures without the aid of EEG, and there was inconsistency between reviewers for stage 3-5 seizures. As the clearest and most consistent (between examiners) scores were for stage 6-7, only these were used for reporting and analysis, although earlier scores were also recorded and saved. Latency to stage 6 or above seizures were plotted as survival curves, and differences were assessed with a long rank test. Scoring was cut off after 22 minutes post-PTZ administration (1320 seconds).

For data set [3] the test system is unchanged. Description: Spontaneous interictal epileptiform discharges (spikes) on EEG. In kind it is in vivo, mouse. Conditions: 75 mg/kg s.c. An excerpt: Infrequent spontaneous seizures also occur in some Kcnt1^R455H/+ heterozygous mice. This experiment sought to determine if administration of a compound of Formula (I-A) could reduce interictal spikes.
Animals: Adult Kcnt1^R455H/+ heterozygous mice on a C57/B6J background were used in all experiments disclosed in this example. Mice were approximately 2-3 months old. No preference was made for male or female animals. This strain is almost always stillborn in the homozygous condition. Seizures occur in some but not all heterozygotes, and interictal discharges occurs reliably.
Implantation of EEG electrodes: Mice were anesthetized with inhaled isoflurane 3-4% induction followed by approximately 1-1.5% maintenance titrated to effect. The head was fixed in a Kopf stereotactic apparatus, and the scalp was sterilized with povidone-iodine. The temperature was regulated to 37 degrees Celsius with a heating pad and rectal probe. Pre-emptive analgesia was provided with subgaleal bupivacaine 0.1% administered to form a wheal on the scalp, no more than 0.08 mL/10 g body weight. A linear midline scalp incision was made from behind the eyes to expose skull markers. Four holes were drilled (#60 drill bit): two anterior to the coronal suture (for left and right active recording), and two ⅔ of the way from the frontal to lambdoid suture (for reference and ground), […]. Screw electrodes were inserted in each burr hole (size W00-96×1.6 mm soldered to 15 mm insulated wire) and connected to a plastic pedestal (PlasticsOne E363). This assembly was then secured with dental cement. Meloxicam 5 mg/kg IP was given for post-operative analgesia.
Drug preparation for mice under EEG: A 7.5 mg/mL solution of a compound of Formula (I-A) was prepared on the day of injection in 10% DMSO/10% Solutol/80% deionized water. After at least 72 hours of baseline recording, the compound of Formula (I-A) was delivered subcutaneously at a dose of 75 mg/kg based on pre-surgical body weight.
EEG recording and analysis: Mice were held in a heated cage for at least 24 hours to recover before connection to the EEG recording system. Two-channel EEG with video was recorded using a Compumedics Grael EEG amplifier at 512 Hz sampling rate. The entire EEG was reviewed manually, and all interictal discharges and seizures were identified and marked. Video recordings were used to confirm epileptiform activity. Mice that had adequate recording quality and interictal spikes were selected for drug delivery. […] EEG recordings were manually scored by a reviewer blinded to treatment group. […]
EEG data were collected and reviewed in Compumedics Profusion. […] Average interictal discharge rates were determined in the baseline period and in the first, second, and third post-injection days (FIG. 3A). […]

Data set [4] has as its system Cortical neurons from Kcnt1^R455H heterozygous mice. Description: Neuronal electrophysiology (current clamp and voltage clamp). In kind it is cell-based, mouse. Conditions: 10 μM, 20 minutes, vs vehicle control. The method, then: Cortical neurons from Kcnt1^R455H heterozygous mice were cultured and treated for 20 minutes with 10 μM of a compound of Formula (I-A) in DMSO. Presumed glutamatergic neurons were identified based on pyramidal morphology. Presumed GABAergic neurons were identified based on spindle morphology (and fast spiking pattern in the control recordings). Current clamp and voltage clamp recordings were performed on an Axon Multiclamp 700B amplifier. It was observed that pyramidal cells treated with vehicle control had many action potentials and mild adaptation in response to an inward current and large outward currents with depolarization.

The next data set relates to Kcnt1^R455H/R455H pups. Kind of data set: Survival of R455H homozygous pups after dosing of pregnant dams. The format is in vivo, mouse. Conditions: for Age survived before death or euthanasia: individual, dams 75 mg/kg s.c. The method, then: Quraishi et. al. PMID 32081855. Without wishing to be bound by theory, it is thought that inhibition of mutant channel activity by KCNT1 inhibitors, such as the compound of Formula (I-A), during gestation might aid the survival of homozygous pups. Timed matings were performed on heterozygote breeding pairs, and a compound of Formula (I-A) was administered to the pregnant dams. No dosing of the live pups with Formula (I-A) was performed. All surviving and stillborn offspring that could be recovered were then genotyped, and brains were dissected and sent for measurement of Formula (I-A).
Breeding and dosing: Timed matings were performed on three KCNT1^R455H+×KCNT1^R455H/+ breeding pairs. Maternal injections of Formula (I-A) (75 mg/kg s.c.) were performed for four pregnant dams from three Kcnt1^R455H/+×Kcnt1^R455H/+ breeding pairs and one Kcnt1^+/+×Kcnt1^+/+ breeding pair. Starting approximately 13 days after the mating plug was identified, pregnant dams were administered 75 mg/kg Formula (I-A) (s.c.) every 3 days (as permitted) through the time of delivery. There was some variability in the days of administration as noted. Offspring were observed daily after delivery. The records of litters and treatment dates are shown below in Table 3. In round one, two doses of Formula (I-A) were delivered to each of the two dams from the Kcnt1^R455H/+×Kcnt1^R455H/+ crosses. […] In round two, three doses of Formula (I-A) were delivered to one dam from a Kcnt1^R455H/+×Kcnt1^R455H/+ cross.
as §1

For `C[C@H](NC(=O)c1cc(C(F)(F)F)nn1C)c1nc(-c2ccnc(C(F)(F)F)c2)no1` [Formula (I-A)], in data set [1], the “Brain Homogenate Concentration” value was 15.2 ng/mL and 133 ng/mL and 109 ng/mL and 16.9 ng/mL. Also, the “Brain Homogenate Concentration (ng/mL)” value in data set [1] is “BLQ”. Also, the “Final brain concentration” value in data set [1] is 167 ng/g and 1458 ng/g and 1200 ng/g and 354 ng/g. Moreover, the “Final brain concentration (ng/g)” value in data set [1] was “BLQ”. Further, the “animals with PTZ-induced convulsive seizures” value in data set [2] (75 mg/kg s.c., 1 hour pretreatment before PTZ 55 mg/kg IP, 1/16 animals, vehicle 6/15 (40%)) stood at 6%. Besides, the “Convulsive seizure latency: hazard ratio (drug/vehicle)” value in data set [2] (75 mg/kg s.c., 1 hour pretreatment before PTZ 55 mg/kg IP) is 0.13 (95% CI 0.03-0.58); in data set [2] (75 mg/kg s.c., 2 hours pretreatment before PTZ 55 mg/kg IP), 0.056 (95% CI 0.019-0.161). The “mice with a seizure that reached stage 6-7” value in data set [2] (75 mg/kg s.c., 2 hours prior to PTZ 55 mg/kg IP, 1 out of 20 mice, vehicle 13 out of 20 (65%)) worked out at 5%. Also, the “effect on PTZ-induced seizures (in words)” value in data set [2] (75 mg/kg s.c., compared to vehicle-treated mice) was “anticonvulsant against PTZ-induced seizures; also recorded: significantly increased the latency to and reduced the incidence of PTZ-induced seizures”. In addition, the “Latency (s) to clonic or tonic seizures with loss of posture” value in data set [2] (75 mg/kg s.c. 1 hour prior to PTZ) was 1320 s (14×) and 190 s and 647 s; in data set [2] (75 mg/kg s.c. 2 hours prior to PTZ), 1320 s (19×) and 294 s. The “interictal spike rate, first 24 hours after dosing vs preceding 72-hour baseline” value in data set [3] (N=12, p=0.005) was “marked per-animal reduction; also recorded: reduced”. Also, in data set [3] (N=12, p=0.042), the “interictal spike rate, second day after dosing vs baseline” value was “reduction persisted”. Moreover, the “interictal spike rate reduction, third day after dosing vs baseline” value in data set [3] (N=12, p>0.999) is “no longer evident”. For the same molecule, in data set [3] (baseline-adjusted spike rates), the “mice with a decrease in spike rates from baseline to Day 1” value is reported as 11 out of 12. Also, the “action potential firing and outward currents, pyramidal cells (presumed glutamatergic)” value in data set [4] is “less sustained action potential firing and diminished outward currents”. The “spike rates and outward currents, presumed GABAergic neurons” value in data set [4] was “markedly reduced spike rates and outward currents”. Moreover, the “Age survived before death or euthanasia” value with Kcnt1^R455H/R455H pups (Kcnt1^+/+ pups, 2 or 3 doses, brains collected at 14 days) was 14 days; in the data set on Kcnt1^R455H/R455H pups (Kcnt1^R455H/+ pups, 2 or 3 doses, brains collected at 14 days), 14 days; in the data set with Kcnt1^R455H/R455H pups (Kcnt1^R455H/R455H pups, 2 doses (litters 1, 2) or 3 doses (litter 3), pups not dosed, dams given 2 doses), 1 days (3×) and 2 days; in the data set on Kcnt1^R455H/R455H pups (Kcnt1^R455H/R455H pups, 2 doses (litters 1, 2) or 3 doses (litter 3), pups not dosed, dams given 3 doses), 4 days. Further, in the data set with Kcnt1^R455H/R455H pups (maternal dosing 75 mg/kg s.c.), the “Kcnt1^R455H/R455H pups that survived multiple days” value is listed as “Two of five”. Further, the “survival of Kcnt1^R455H/R455H pups born alive (in words)” value in the data set on Kcnt1^R455H/R455H pups (round one: two doses 75 mg/kg s.c. to each of two dams, four pups born alive) was “three surviving for one day and one surviving two days”. Moreover, the “survival of Kcnt1^R455H/R455H pup (in words)” value with Kcnt1^R455H/R455H pups (round two: three doses 75 mg/kg s.c. to one dam, one pup) was “survived for four days”.
